Measured values from patent publication US12195460B2, “Pyrido-[3,4-d]pyridazine amine derivatives useful as NLRP3 inhibitors” (Ventus Therapeutics U.S., Inc., priority 2022, dated 2025).

Experiment: Brain levels (Kp and Kpu,u) in mice after oral administration
Format: in vivo, CDI mice
Settings: 20 mpk PO; for kpu, u: kp corrected with mouse plasma protein binding and mouse brain homogenate binding; for Kp at 24 h: CDI, mouse, 20 mg/kg, whole brain AUC over 24 h divided by plasma AUC
Method: Brain Levels (Kp and Kpu,u)—NLRP3
The in vivo total brain to plasma ratio was assessed in CDI mice after oral administration of the compound. Blood was collected at several timepoints up to 24 h, and transferred into plastic micro centrifuge tubes with EDTA-K2 as anticoagulant. Blood samples were centrifuged at 4000 g for 5 minutes at 4° C. to obtain plasma, then immediately frozen and stored at −75±15° C. prior to analysis. Animals were terminally anaesthetized with a rising concentration of CO2 gas at about 1 minute. At selected timepoints, whole brains were removed from the skull, rinsed in cold PBS to remove blood, dried with clean gauze, then frozen in liquid nitrogen and kept at −75±15° C. before analysis. At the time of analysis, brain samples were homogenized with PBS by tissue weight (g) to PBS volume (mL) ratio 1:3. Plasma and brain drug levels were quantified by LC/MS/MS on a AB Sciex Triple Quad 5500+ instrument, after separation on a HALO 160A ES-C18, 2.7 μm 2.1×50 mm column. Quantitation was performed using a calibration curve prepared in blank plasma or blank brain homogenate. The software WinNonlin (Phoenix™) was used for pharmacokinetic analysis from the concentrations versus time data, including the AUCinf and AUClast. The Kp ratio (total brain concentration over total plasma concentration) was calculated as (AUCtot,hr)/(AUCtot,pl).
The unbound brain exposure was assessed as Kpuu, which is the free brain/free plasma concentration ratio (Cu,hr/Cu,pl). The Cu,bt/Cu,pl ratios were obtained from in vivo total brain to plasma ratios (Ctot,br/Ctot,pl) by using in vitro determined Fu,br and Fu,pl.
Plasma protein binding and brain homogenate protein binding were measured by equilibrium dialysis in a HTDialysis plate. The dialysis membranes were soaked in ultrapure water for 60 minutes to separate strips, then in 20% ethanol for 20 minutes, finally in dialysis buffer for 20 minutes. The dialysis set up was assembled according to the manufacturer's instruction. Each cell received 150 μL of plasma or brain homogenate spiked with 1 μM of compound, and dialyzed against an equal volume of dialysis buffer (PBS). The dialysis plate was sealed and incubated in an incubator at 37° C. with 5% CO2 at 100 rpm for 6 hours. At the end of incubation, compound concentration was measured in both chambers by LC-MS/MS on a Triple Quad™ 5500 from AB Inc after separation on a XSelect Hss T3 2.5μ (2.1×30 mm) column. Free fraction (Fu) was calculated as (Peak Area Ratio buffer chamber/Peak Area Ratio plasma chamber).
Finally, Kpuu was calculated as (AUCtot,br×Fu,bt)/(AUCtot,pl×Fu,pl).
Table 3 assigns each compound a code for kp and kpu,u values: A or B. According to the code, A represents a value of >0.3 and B represents a value of <0.3. […] The kpu,u was then calculated upon correcting this kp value with mouse plasma protein binding and mouse brain homogenates binding.

| SMILES | kpu, u | Kp at 24 h |
| --- | --- | --- |
| CC1(C)COC[C@@H]1Nc1nnc(-c2ccc(Cl)cc2O)c2ccncc12 [Compound 1, (R)-5-chloro-2-(4-((4,4-dimethyltetrahydrofuran-3-yl)amino)pyrido[3,4-d]pyridazin-1-yl)phenol] | A (A represents a value of >0.3) |  |
| [2H]C([2H])([2H])OC(C)(C)CNc1nnc(-c2ccc(C(F)F)cc2O)c2ccncc12 [Compound 2, 5-(difluoromethyl)-2-(4-((2-(methoxy-d3)-2-methylpropyl)amino)pyrido[3,4-d]pyridazin-1-yl)phenol] | A (A represents a value of >0.3) | > 0.3 |
| CC1(C)COCC[C@H]1Nc1nnc(-c2ccc(Cl)cc2O)c2ccncc12 [Compound 3, (R)-5-chloro-2-(4-((3,3-dimethyltetrahydro-2H-pyran-4-yl)amino)pyrido[3,4-d]pyridazin-1-yl)phenol] | A (A represents a value of >0.3) | > 0.3 |
| CC1(C)C[C@@H](Nc2nnc(-c3ccc(Cl)cc3O)c3ccncc23)CCO1 [Compound 4, (S)-5-chloro-2-(4-((2,2-dimethyltetrahydro-2H-pyran-4-yl)amino)pyrido[3,4-d]pyridazin-1-yl)phenol] | A (A represents a value of >0.3) |  |
| Cc1ccc(-c2nnc(N[C@H]3COC(C)(C)C3)c3cnccc23)c(O)c1 [Compound 5, (R)-2-(4-((5,5-dimethyltetrahydrofuran-3-yl)amino)pyrido[3,4-d]pyridazin-1-yl)-5-methylphenol] | A (A represents a value of >0.3) | > 0.3 |
| CN1CCO[C@@H](CNc2nnc(-c3ccc(C(F)(F)F)cc3O)c3ccncc23)C1 [Compound 6, (S)-2-(4-(((4-methylmorpholin-2-yl)methyl)amino)pyrido[3,4-d]pyridazin-1-yl)-5-(trifluoromethyl)phenol] | A (A represents a value of >0.3) |  |
| Oc1cc(Cl)ccc1-c1nnc(N[C@H]2CCOC2)c2cnccc12 [Compound 7, (S)-5-chloro-2-(4-((tetrahydrofuran-3-yl)amino)pyrido[3,4-d]pyridazin-1-yl)phenol, reference compound] | B (B represents a value of <0.3) |  |
| OCC1(CNc2nnc(-c3ccc(Cl)cc3O)c3ccncc23)CC1 [Compound 8, 5-chloro-2-(4-(((1-(hydroxymethyl)cyclopropyl)methyl)amino)pyrido[3,4-d]pyridazin-1-yl)phenol, reference compound] | B (B represents a value of <0.3) | < 0.3 |
